Results from ChEMBL document CHEMBL4177616, “Potent anti-melanogenic activity and favorable toxicity profile of selected 4-phenyl hydroxycoumarins in the zebrafish model and the computational molecular modeling studies” (Bioorg Med Chem, 2017).

Legend:
[1] = organism: Danio rerio; experiment: Toxicity in wild type zebrafish embryos assessed as notochord at 2500 ug/ml treated for 96 hrs post fertilization starting from 6 hrs post fertilization by inverted microscopic analysis relative to control; format: organism-based; settings: in vivo
[2] = organism: Danio rerio; experiment: Toxicity in wild type zebrafish embryos assessed as head malformation at 2000 ug/ml treated for 96 hrs post fertilization starting from 6 hrs post fertilization by inverted microscopic analysis relative to control; format: organism-based; settings: in vivo
[3] = organism: Danio rerio; experiment: Toxicity in wild type zebrafish embryos assessed as eyes at 500 ug/ml treated for 96 hrs post fertilization starting from 6 hrs post fertilization by inverted microscopic analysis relative to control; format: organism-based; settings: in vivo
[4] = organism: Danio rerio; experiment: Toxicity in wild type zebrafish embryos assessed as otoliths at 500 ug/ml treated for 96 hrs post fertilization starting from 6 hrs post fertilization by inverted microscopic analysis relative to control; format: organism-based; settings: in vivo
[5] = organism: Danio rerio; experiment: Toxicity in wild type zebrafish embryos assessed as scoliosis at 2.5 ug/ml treated for 96 hrs post fertilization starting from 6 hrs post fertilization by inverted microscopic analysis relative to control; format: organism-based; settings: in vivo
[6] = organism: Danio rerio; experiment: Toxicity in wild type zebrafish embryos assessed as head malformation at 2500 ug/ml treated for 96 hrs post fertilization starting from 6 hrs post fertilization by inverted microscopic analysis relative to control; format: organism-based; settings: in vivo
[7] = organism: Danio rerio; experiment: Toxicity in wild type zebrafish embryos assessed as normal embryo at 1000 ug/ml treated for 96 hrs post fertilization starting from 6 hrs post fertilization by inverted microscopic analysis relative to control; format: organism-based; settings: in vivo
[8] = organism: Danio rerio; experiment: Toxicity in wild type zebrafish embryos assessed as teratogenic embryo at 2500 ug/ml treated for 96 hrs post fertilization starting from 6 hrs post fertilization by inverted microscopic analysis relative to control; format: organism-based; settings: in vivo
[9] = organism: Danio rerio; experiment: Toxicity in wild type zebrafish embryos assessed as heart beat at 2000 ug/ml treated for 96 hrs post fertilization starting from 6 hrs post fertilization by inverted microscopic analysis relative to control; format: organism-based; settings: in vivo
[10] = organism: Danio rerio; experiment: Toxicity in wild type zebrafish embryos assessed as normal embryo at 2000 ug/ml treated for 96 hrs post fertilization starting from 6 hrs post fertilization by inverted microscopic analysis relative to control; format: organism-based; settings: in vivo
[11] = organism: Danio rerio; experiment: Toxicity in wild type zebrafish embryos assessed as heart beat at 100 ug/ml treated for 96 hrs post fertilization starting from 6 hrs post fertilization by inverted microscopic analysis relative to control; format: organism-based; settings: in vivo
[12] = Toxicity in wild type zebrafish embryos assessed as dead embryo at 2500 ug/ml treated for 96 hrs post fertilization starting from 6 hrs post fertilization by inverted microscopic analysis relative to control; format: organism-based, Danio rerio; settings: in vivo, read-out: Activity
[13] = organism: Danio rerio; experiment: Toxicity in wild type zebrafish embryos assessed as skeletal deformities at 1000 ug/ml treated for 96 hrs post fertilization starting from 6 hrs post fertilization by inverted microscopic analysis relative to control; format: organism-based; settings: in vivo
[14] = system: Danio rerio; experiment: Toxicity in wild type zebrafish embryos assessed as yolk edema at 100 ug/ml treated for 96 hrs post fertilization starting from 6 hrs post fertilization by inverted microscopic analysis relative to control; format: organism-based; settings: in vivo
[15] = organism: Danio rerio; experiment: Toxicity in wild type zebrafish embryos assessed as teratogenic embryo at 500 ug/ml treated for 96 hrs post fertilization starting from 6 hrs post fertilization by inverted microscopic analysis relative to control; format: organism-based; settings: in vivo
[16] = organism: Danio rerio; experiment: Toxicity in wild type zebrafish embryos assessed as growth retardation at 2500 ug/ml treated for 96 hrs post fertilization starting from 6 hrs post fertilization by inverted microscopic analysis relative to control; format: organism-based; settings: in vivo
[17] = organism: Danio rerio; experiment: Toxicity in wild type zebrafish embryos assessed as head malformation at 1000 ug/ml treated for 96 hrs post fertilization starting from 6 hrs post fertilization by inverted microscopic analysis relative to control; format: organism-based; settings: in vivo
[18] = Toxicity in wild type zebrafish embryos assessed as dead embryo at 500 ug/ml treated for 96 hrs post fertilization starting from 6 hrs post fertilization by inverted microscopic analysis relative to control; format: organism-based, Danio rerio; settings: in vivo, read-out: Activity
[19] = organism: Danio rerio; experiment: Toxicity in wild type zebrafish embryos assessed as teratogenic embryo at 1000 ug/ml treated for 96 hrs post fertilization starting from 6 hrs post fertilization by inverted microscopic analysis relative to control; format: organism-based; settings: in vivo
[20] = organism: Danio rerio; experiment: Toxicity in wild type zebrafish embryos assessed as notochord at 500 ug/ml treated for 96 hrs post fertilization starting from 6 hrs post fertilization by inverted microscopic analysis relative to control; format: organism-based; settings: in vivo
[21] = system: Danio rerio; experiment: Toxicity in wild type zebrafish embryos assessed as pericardial edema at 2000 ug/ml treated for 96 hrs post fertilization starting from 6 hrs post fertilization by inverted microscopic analysis relative to control; format: organism-based; settings: in vivo
[22] = organism: Danio rerio; experiment: Toxicity in wild type zebrafish embryos assessed as eyes at 15 ug/ml treated for 96 hrs post fertilization starting from 6 hrs post fertilization by inverted microscopic analysis relative to control; format: organism-based; settings: in vivo
[23] = organism: Danio rerio; experiment: Toxicity in wild type zebrafish embryos assessed as heart beat at 15 ug/ml treated for 96 hrs post fertilization starting from 6 hrs post fertilization by inverted microscopic analysis relative to control; format: organism-based; settings: in vivo
[24] = system: Danio rerio; experiment: Toxicity in wild type zebrafish embryos assessed as pericardial edema at 15 ug/ml treated for 96 hrs post fertilization starting from 6 hrs post fertilization by inverted microscopic analysis relative to control; format: organism-based; settings: in vivo
[25] = organism: Danio rerio; experiment: Toxicity in wild type zebrafish embryos assessed as head malformation at 50 ug/ml treated for 96 hrs post fertilization starting from 6 hrs post fertilization by inverted microscopic analysis relative to control; format: organism-based; settings: in vivo
[26] = organism: Danio rerio; experiment: Toxicity in wild type zebrafish embryos assessed as teratogenic embryo at 15 ug/ml treated for 96 hrs post fertilization starting from 6 hrs post fertilization by inverted microscopic analysis relative to control; format: organism-based; settings: in vivo
[27] = Toxicity in wild type zebrafish embryos assessed as dead embryo at 15 ug/ml treated for 96 hrs post fertilization starting from 6 hrs post fertilization by inverted microscopic analysis relative to control; format: organism-based, Danio rerio; settings: in vivo, read-out: Activity
[28] = organism: Danio rerio; experiment: Toxicity in wild type zebrafish embryos assessed as skeletal deformities at 15 ug/ml treated for 96 hrs post fertilization starting from 6 hrs post fertilization by inverted microscopic analysis relative to control; format: organism-based; settings: in vivo
[29] = system: Neutrophil; experiment: Cytotoxicity against […] transgenic zebrafish 24 hrs post fertilization embryo neutrophils assessed as reduction in neutrophil at 25 ug/ml treated for 72 hrs post fertilization starting from 6 to 24 hrs post fertilization; format: cell-based, Danio rerio
[30] = target: T1, Tyrosinase (Danio rerio) (UniProt A0A8M1PAD4); experiment: Inhibition of zebrafish embryo tyrosinase assessed as melanin production at 50 ug/ml after 48 hrs relative to control; values are per cent of control
T1 sequence (whole entry): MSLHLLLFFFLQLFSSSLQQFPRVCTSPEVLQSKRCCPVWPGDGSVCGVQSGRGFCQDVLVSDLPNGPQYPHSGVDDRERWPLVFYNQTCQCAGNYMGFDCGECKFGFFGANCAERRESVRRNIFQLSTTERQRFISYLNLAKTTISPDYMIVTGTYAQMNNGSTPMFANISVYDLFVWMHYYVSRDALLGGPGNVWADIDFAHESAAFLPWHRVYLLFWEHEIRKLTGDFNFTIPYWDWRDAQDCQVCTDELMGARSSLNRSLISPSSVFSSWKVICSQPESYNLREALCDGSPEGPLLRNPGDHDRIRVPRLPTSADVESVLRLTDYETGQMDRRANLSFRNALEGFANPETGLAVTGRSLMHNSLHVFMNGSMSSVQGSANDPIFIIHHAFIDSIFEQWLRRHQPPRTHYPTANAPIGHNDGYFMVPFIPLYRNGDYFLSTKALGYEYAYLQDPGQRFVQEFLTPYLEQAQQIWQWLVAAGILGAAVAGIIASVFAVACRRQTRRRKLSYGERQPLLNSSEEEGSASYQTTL

**Q.** Which results are given for `O=c1cc(CO)occ1O` [KOJIC ACID]?
**A.** Activity [1]: 0%; Activity [2]: 78.33%; Activity [3]: 0%; Activity [4]: 0%; Activity [5]: Toxic; Activity [6]: 98.33%; Activity [7]: 1.67%; Activity [8]: 100%; Activity [9]: 96.67%; Activity [10]: 0%; Activity [11]: 0%; mortality at 2500 ug/ml [12]: 0%; Activity [13]: 0%; Activity [14]: 0%; Activity [15]: 86.67%; Activity [16]: 35%; Activity [17]: 0%; mortality at 500 ug/ml [18]: 0%; Activity [19]: 98.33%; Activity [20]: 0%; Activity [21]: 100%

**Q.** With `O=c1cc(-c2ccccc2)c2c(O)cc(O)cc2o1` as the compound, how does the Activity [22] read?
**A.** Its Activity is 0%.

**Q.** And the Activity [23]?
**A.** The Activity was 0%.

**Q.** And the Activity [24]?
**A.** The Activity was 0%.

**Q.** What about the Activity [25] of the same compound?
**A.** Its Activity is 0%.

**Q.** What about the Activity [26] of the same compound?
**A.** Its Activity is 0%.

**Q.** What about the mortality at 15 ug/ml [27] of the same compound?
**A.** Its mortality at 15 ug/ml is 0%.

**Q.** And the Activity [28]?
**A.** Its Activity is 0%.

**Q.** What about the Activity [29] of the same compound?
**A.** Its Activity is “Non-Toxic”.

**Q.** For `O=c1cc(-c2ccccc2)c2ccc(O)cc2o1`, which Activity [22] is on record?
**A.** The Activity was 0%.

**Q.** And the Activity [23]?
**A.** The Activity was 0%.

**Q.** What about the Activity [24] of the same compound?
**A.** The Activity was 0%.

**Q.** And the Activity [25]?
**A.** Its Activity is 0%.

**Q.** And the melanin content % of control [30]?
**A.** The melanin content % of control was 24%.

**Q.** What about the Activity [26] of the same compound?
**A.** The Activity was 0%.

**Q.** And the mortality at 15 ug/ml [27]?
**A.** Its mortality at 15 ug/ml is 0%.

**Q.** And the Activity [28]?
**A.** Its Activity is 0%.

**Q.** And the Activity [29]?
**A.** Its Activity is “Non-Toxic”.
